Measured values reported in PMC12517324, “Hyperagonism of a Vitamin D Receptor Agonist/Histone Deacetylase Inhibitor Hybrid Molecule” (Journal of Medicinal Chemistry, 2025).

What was measured:
B16–F10 cells = assay: RNaseq gene expression profiling; assay type: cell-based, mouse; details: 24 h
Method: AC-340 superinduced CYP24A1 expression in all cell lines tested, and ZG-126 appeared to be a hyperagonist in SK-MEL-28 cells. […] AC-340 treatment produced 3 times more differentially expressed genes (DEGs) than AM-193, with ZG-126 producing an intermediate number (Figure A). […] The varying effects of each treatment on the numbers of regulated genes and the fold changes observed are reflected in plots of log-fold changes and volcano plots (Figure S3B).
A quality control was performed before sequencing in paired-end at 50 M reads by Illumina NovaSeq 6000 S4 PE100. After sequencing, the FASTQ files were sent to us and all downstream analysis were performed on Galaxy (Galaxy (usegalaxy.org)). First, trimmomatic tool was used to remove the adapters from the reads. Then, using the alignment tool, HISAT2, the reads were mapped to the mouse genome. In the next step, the counted reads were annotated and finally the list of differentially expressed genes (DEGs) for each treatment was obtained using the preinstalled R package called Limma.

[1] = test system: CYP24A1 in SK-MEL-28 cells; assay: CYP24A1 induction (RT-qPCR), extended dose–response in SK-MEL-28 cells
[2] = test system: VDRE in the mouse Spp1 gene, B16–F10 cells; assay: ChIP-qPCR at the Spp1 VDRE; assay type: cell-based
Description: To test this, we performed ChIP assays in B16–F10 cells, analyzing ligand-induced VDR and CBP (Creb binding protein) coactivator recruitment to the well-characterized consensus vitamin D receptor element (VDRE) in the mouse Spp1 gene (Figure A), which is superinduced by AC-340 (Figures C and A). CBP was chosen because it is widely expressed, and previous studies have shown that it is recruited to Cyp24a1 VDREs. […] In contrast, AC-340 recruited almost 3-fold more CBP under the same conditions (Figure C). CBP is a component of a large coactivator assembly recruited by VDR and required for chromatin remodeling due to its H3K27 acetyltransferase activity. − Since we previously observed a substantially higher level of H3K27 acetylation in AC-340-treated B16–F10 cells (Figure C,D), we intend to assess H3K27 acetylation at the Spp1 VDRE.
Cells were then fixed by adding formaldehyde directly to the culture medium to a final concentration of 1% and incubated for 15 min at RT. To quench the fixation, glycine was added to the medium at a final concentration of 125 mM. […] Quantification of immunoprecipitated materials was performed by qPCR and the enrichment of the target gene VDRE in each condition was normalized to the percentage input.

VDR = test system: VDR; set-up: method as in earlier work; details: efficacious and well-tolerated dose; ref (ref); cited from earlier work
[3] = test system: Cyp24a1 gene in B16–F10 melanoma cells; assay: Cyp24a1 gene induction (RT-qPCR) as test of VDR agonism; assay type: cell-based, mouse; details: hybrids 10 μM, 1,25D and SAHA 100 nM, 24 h
[4] = test system: VDR target genes in B16-F10 cells; assay: RT-qPCR of selected VDR target genes (RNaseq validation); assay type: cell-based, mouse; details: B16-F10, 24 h, compared with other treatments
Description: The enhanced response of B16–F10 cells to AC-340 likely reflects the VDR hyperagonist activity observed in Cyp24a1 induction assay (Figure A). […] In 49 of 50 cases, AC-340 superinduced their expression, often several fold (Figure C), consistent with AC-340 being a broad hyperagonist of 1,25D-induced genes.
RNAseq data validation by RT-qPCR of selected VDR target genes in B16-F10
Fig. S4. Validation of the RNAseq data by RT-qPCR.

HDAC 10 = molecular target: T1, HDAC 10 (Homo sapiens, UniProt Q969S8); assay: HDAC 10 inhibition (Reaction Biology, 10-dose IC50)
T1 sequence (Q969S8 1-669): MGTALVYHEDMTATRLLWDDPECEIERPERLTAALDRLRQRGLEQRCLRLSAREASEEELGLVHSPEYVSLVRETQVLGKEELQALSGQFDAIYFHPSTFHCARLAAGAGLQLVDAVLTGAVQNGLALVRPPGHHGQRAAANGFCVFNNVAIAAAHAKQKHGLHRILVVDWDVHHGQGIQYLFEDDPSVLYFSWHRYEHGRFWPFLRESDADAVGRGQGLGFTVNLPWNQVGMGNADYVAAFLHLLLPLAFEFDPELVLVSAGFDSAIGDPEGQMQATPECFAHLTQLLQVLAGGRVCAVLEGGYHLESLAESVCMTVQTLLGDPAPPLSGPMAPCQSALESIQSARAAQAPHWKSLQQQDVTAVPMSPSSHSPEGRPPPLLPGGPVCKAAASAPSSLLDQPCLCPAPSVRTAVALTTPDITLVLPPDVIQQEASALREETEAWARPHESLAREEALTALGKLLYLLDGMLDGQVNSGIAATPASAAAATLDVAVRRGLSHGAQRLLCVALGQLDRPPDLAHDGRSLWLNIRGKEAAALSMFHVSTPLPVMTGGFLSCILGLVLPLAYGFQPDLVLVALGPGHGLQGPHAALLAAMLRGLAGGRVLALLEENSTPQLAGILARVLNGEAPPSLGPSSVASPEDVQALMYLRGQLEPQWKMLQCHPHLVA

Compound: C=C1/C(=C\C=C2/CCC[C@]3(C)[C@@H]([C@H](C)CCCC(C)(C)O)CC[C@@H]23)C[C@@H](O)C[C@@H]1O [1,25D, 1α,25-dihydroxyvitamin D]
- logFC 4931406C07Rik (B16–F10 cells; 100 nM): 0.647
- logFC Abcd2 (B16–F10 cells; 100 nM): 2.727
- logFC Ace (B16–F10 cells; 100 nM): 2.102
- logFC Adamts14 (B16–F10 cells; 100 nM): 1.691
- logFC Adamtsl5 (B16–F10 cells; 100 nM): 0.7958
- logFC Adssl1 (B16–F10 cells; 100 nM): 0.8651
- logFC Aqp1 (B16–F10 cells; 100 nM): 3.095
- logFC Ass1 (B16–F10 cells; 100 nM): 1.083
- logFC Atoh8 (B16–F10 cells; 100 nM): 1.866
- logFC C3 (B16–F10 cells; 100 nM): 2.444
- logFC Cebpd (B16–F10 cells; 100 nM): 0.9202
- logFC Cib2 (B16–F10 cells; 100 nM): 0.656
- logFC Crabp2 (B16–F10 cells; 100 nM): 1.516
- logFC Cyp24a1 (B16–F10 cells; 100 nM): 6.454
- logFC Dagla (B16–F10 cells; 100 nM): 0.6621
- logFC Ddo (B16–F10 cells; 100 nM): 1.132
- logFC Dhrs3 (B16–F10 cells; 100 nM): 1.185
- logFC Dmpk (B16–F10 cells; 100 nM): 1.6
- logFC Efcab6 (B16–F10 cells; 100 nM): 1.404
- logFC Efhd1 (B16–F10 cells; 100 nM): 3.1104
- logFC Elfn1 (B16–F10 cells; 100 nM): 4.174
- logFC Enpp1 (B16–F10 cells; 100 nM): 1.029
- logFC Enpp3 (B16–F10 cells; 100 nM): 1.066
- logFC Fam83f (B16–F10 cells; 100 nM): 1.009
- logFC Fam178b (B16–F10 cells; 100 nM): 0.6417
- logFC Gadd45a (B16–F10 cells; 100 nM): 0.6305
- logFC Gdpd5 (B16–F10 cells; 100 nM): 0.8468
- logFC Gm5424 (B16–F10 cells; 100 nM): 1.087
- logFC Grb14 (B16–F10 cells; 100 nM): 4.512
- logFC Hcn2 (B16–F10 cells; 100 nM): 2.951
- logFC Hes6 (B16–F10 cells; 100 nM): 0.8133
- logFC Hoga1 (B16–F10 cells; 100 nM): 0.7079
- logFC Hoxb9 (B16–F10 cells; 100 nM): 0.9861
- logFC Inmt (B16–F10 cells; 100 nM): 4.174
- logFC Itgal (B16–F10 cells; 100 nM): 2.511
- logFC Lgr6 (B16–F10 cells; 100 nM): 1.733
- logFC Lrtm2 (B16–F10 cells; 100 nM): 3.553
- logFC Mal (B16–F10 cells; 100 nM): 1.086
- logFC Matn2 (B16–F10 cells; 100 nM): 1.519
- logFC Mmp28 (B16–F10 cells; 100 nM): 2.973
- logFC Myl9 (B16–F10 cells; 100 nM): 1.815
- logFC Neu3 (B16–F10 cells; 100 nM): 0.8227
- logFC Nptx1 (B16–F10 cells; 100 nM): 1.67
- logFC Obscn (B16–F10 cells; 100 nM): 1.291
- logFC Pdlim2 (B16–F10 cells; 100 nM): 0.7794
- logFC Prag1 (B16–F10 cells; 100 nM): 0.7325
- logFC Prelp (B16–F10 cells; 100 nM): 4.153
- logFC Ptges (B16–F10 cells; 100 nM): 2.985
- logFC Rab7b (B16–F10 cells; 100 nM): 1.864
- logFC Rac2 (B16–F10 cells; 100 nM): 2.0813
- logFC Rom1 (B16–F10 cells; 100 nM): 0.7288
- logFC Rtn2 (B16–F10 cells; 100 nM): 0.9272
- logFC Scamp1 (B16–F10 cells; 100 nM): 0.6536
- logFC Serpinb9b (B16–F10 cells; 100 nM): 0.64
- logFC Sh3bgr (B16–F10 cells; 100 nM): 1.253
- logFC Shpk (B16–F10 cells; 100 nM): 0.8108
- logFC Sox8 (B16–F10 cells; 100 nM): 3.592
- logFC Spp1 (B16–F10 cells; 100 nM): 3.391
- logFC Srcin1 (B16–F10 cells; 100 nM): 2.803
- logFC Tgm2 (B16–F10 cells; 100 nM): 2.227
- logFC Tnni1 (B16–F10 cells; 100 nM): 6.667
- logFC Ttc39c (B16–F10 cells; 100 nM): 1.046
- logFC Vdr (B16–F10 cells; 100 nM): 3.982
- logFC Wnt10a (B16–F10 cells; 100 nM): 1.853
- CYP24A1 induction on extending the dose range ([1]; SK-MEL-28 cells, 1,25D up to 1 mM): failed to enhance the induction of CYP24A1
- H3K27 acetylation at the Spp1 VDRE [2]: ineffective

Compound: CCC(CC)(c1ccc(C(=O)NCCCCC(=O)NO)cc1)c1ccc(OCC(O)C(C)(C)C)c(C)n1 (centres unmarked) [ZG-126]
- VDR agonist activity in vivo (VDR): displays VDR agonist activity in vivo
- Cyp24a1 gene expression induction [3]: more efficacious than 1,25D (and AM-193)
- logFC Btn1a1 (B16–F10 cells; 10 μM): 8.367
- logFC Cyp24a1 (B16–F10 cells; 10 μM): 8.537
- logFC Elfn1 (B16–F10 cells; 10 μM): 7.8172
- logFC Nccrp1 (B16–F10 cells; 10 μM): 7.976
- logFC Tnni1 (B16–F10 cells; 10 μM): 9.358
- CYP24A1 induction (VDR hyperagonism) ([1]; SK-MEL-28 cells, 10 μM): displayed hyperagonism
- Prelp gene induction [4]: most efficacious inducer
- Tgm2 gene induction [4]: most efficacious inducer

Compound: Cn1cc(CNCC2CCN(c3ncc(C(=O)NO)cn3)CC2)c2ccccc21 [Quisinostat]
- IC50 (HDAC 10): 4.52 nM
